{"source": "ChEMBL document CHEMBL1148094", "about": "“Graminone B, a novel lignan with vasodilative activity from Imperata cylindrica” (1994)", "key": {"[1]": {"assay": "Vasorelaxant activity in rabbit aorta assessed as inhibition of KCl-induced contractile response at 100 uM", "assay_type": "functional", "details": "Oryctolagus cuniculus"}, "Oryctolagus cuniculus": {"organism": "Oryctolagus cuniculus", "assay": "Vasorelaxant activity in rabbit aorta assessed as inhibition of norepinephrine-induced contractile response at 100 uM", "assay_type": "functional, tissue-based"}}, "note": "Calls of active or inactive are those of the source. The calls are words filed in the database; no cut-off is given here."}
{"smiles": "COc1cc(O)cc([C@@H]2OC[C@@H]3[C@H]2C(=O)O[C@H]3c2cc(O)c(OC)c(OC)c2)c1", "note": "[GRAMINONE B]", "values": [{"measurement": "inhibition at 100 µM", "setting": "[1]", "value": 50, "unit": "%"}, {"measurement": "Activity", "setting": "Oryctolagus cuniculus", "value": "inactive"}]}
